Assay results reported in patent publication US20050239656A1, “Pyridine compounds or salts thereof and herbicides containing the same” (priority 2002, published 2005).

How the values were obtained:
[1] = system: velvetleaf; experiment: Test Example 1: foliage treatment, upland pot test; assay type: in vivo, Abutilon theophrasti MEDIC.; conditions: active ingredient 500 g/ha, observed 18th to 23rd day, 0 = non-treated, 100 = complete kill
[2] = system: rice; experiment: Test Example 1: foliage treatment, upland pot test; assay type: in vivo, Oryza sativa L.; conditions: crop, active ingredient 500 g/ha, observed 18th to 23rd day, 0 = non-treated, 100 = complete kill
How it was run: (§1)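 Each plant species was sprayed once on its foliage, with wheat at 1.3–2.4, soybean at 0.1–0.4, barnyardgrass at 1.3–2.8 and rice at 1.2–2.6 leaves. Visual ratings of growth inhibition, 0 to 100%, followed 18–23 days later.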

[3] = system: barnyardgrass; experiment: Test Example 2: soil surface treatment, upland pot test; assay type: in vivo, Echinochloa crus-galli L.; conditions: active ingredient 500 g/ha
How it was run: (§2)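 Sowing, then next-day soil-surface spray of formulated test compound (fixed a.i. amount, 1,500 L/ha spray volume); visual evaluation of growth inhibition, 0–100%, three to four weeks (days 20–28) after application.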

[4] = system: barnyardgrass; experiment: Test Example 3: paddy pot test, application under submerged conditions; assay type: in vivo, Echinochloa crus-galli L.; conditions: submerged application at 0.5 leaf stage, visually observed 14 days after application, 0 = non-treated, 100 = complete kill
How it was run: (§3)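 After sowing seeds and planting wapato tubers in flooded paddy soil, an aqueous dilution of the formulated compound was added to the 3–4 cm flood water at early leaf stage. Percent growth control relative to the untreated plot was assessed visually on day 14.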

[5] = system: prickly sida; experiment: Test Example 1: foliage treatment, upland pot test; assay type: in vivo, Sida spinosa L.; conditions: active ingredient 500 g/ha, observed 18th to 23rd day, 0 = non-treated, 100 = complete kill
[6] = system: soybean; experiment: Test Example 1: foliage treatment, upland pot test; assay type: in vivo, Glycine max Merr.; conditions: crop, active ingredient 500 g/ha, observed 18th to 23rd day, 0 = non-treated, 100 = complete kill
How it was run: as §1

[7] = system: velvetleaf; experiment: Test Example 2: soil surface treatment, upland pot test; assay type: in vivo, Abutilon theophrasti MEDIC.; conditions: active ingredient 500 g/ha
How it was run: as §2

[8] = system: green foxtail; experiment: as above; assay type: in vivo, Setaria viridis L.; conditions: active ingredient 500 g/ha
How it was run: as §2

[9] = system: corn; experiment: as above; assay type: in vivo, Zea mays L.; conditions: active ingredient 500 g/ha
How it was run: as §2

[10] = system: japanese ribbon wapato; experiment: Test Example 3: paddy pot test, application under submerged conditions; assay type: in vivo, Sagittaria pygniaea; conditions: submerged application at primary leaf stage, visually observed 14 days after application, 0 = non-treated, 100 = complete kill
How it was run: as §3

[11] = system: green foxtail; experiment: Test Example 1: foliage treatment, upland pot test; assay type: in vivo, Setaria viridis L.; conditions: active ingredient 500 g/ha, observed 18th to 23rd day, 0 = non-treated, 100 = complete kill
[12] = system: soybean; experiment: Test Example 2: soil surface treatment, upland pot test; assay type: in vivo, Glycine max Merr.; conditions: active ingredient 500 g/ha
How it was run: as §2

[13] = system: redroot pigweed; experiment: as above; assay type: in vivo, Amaranthus retroflexus L.; conditions: active ingredient 500 g/ha
How it was run: as §2

[14] = system: japanese bulrush; experiment: Test Example 3: paddy pot test, application under submerged conditions; assay type: in vivo, Scirpus juncoides; conditions: submerged application at 0.5 leaf stage, visually observed 14 days after application, 0 = non-treated, 100 = complete kill
How it was run: as §3

[15] = system: crabgrass; experiment: Test Example 2: soil surface treatment, upland pot test; assay type: in vivo, Digitaria sanguinalis L.; conditions: active ingredient 500 g/ha
How it was run: as §2

[16] = system: prickly sida; experiment: as above; assay type: in vivo, Sida spinosa L.; conditions: active ingredient 500 g/ha
How it was run: as §2

[17] = system: corn; experiment: Test Example 1: foliage treatment, upland pot test; assay type: in vivo, Zea mays L.; conditions: crop, active ingredient 500 g/ha, observed 18th to 23rd day, 0 = non-treated, 100 = complete kill
How it was run: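 In this upland pot foliage test, corn plants at 2.1 to 3.2 leaf stages were sprayed by a small size sprayer. The spray was a conventionally formulated wettable powder or emulsifiable concentrate weighed to a set active ingredient amount, diluted in water at 500 L/ha, plus 0.1% (v/v) agricultural spreader. Visual assessment on days 18 to 23 gave growth controlling degree (%), where 0 equals untreated and 100 means complete kill.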

[18] = system: rice; experiment: Test Example 2: soil surface treatment, upland pot test; assay type: in vivo, Oryza sativa L.; conditions: active ingredient 500 g/ha
How it was run: as §2

[19] = system: redroot pigweed; experiment: Test Example 1: foliage treatment, upland pot test; assay type: in vivo, Amaranthus retroflexus L.; conditions: active ingredient 500 g/ha, observed 18th to 23rd day, 0 = non-treated, 100 = complete kill
[20] = system: crabgrass; experiment: Test Example 1: foliage treatment, upland pot test; assay type: in vivo, Digitaria sanguinalis L.; conditions: active ingredient 500 g/ha, observed 18th to 23rd day, 0 = non-treated, 100 = complete kill
[21] = system: rice (var. Nihonbare); experiment: Test Example 3: paddy pot test, transplanted rice; assay type: in vivo, Oryza sativa L.; conditions: applied 4th day after transplantation, visually observed 21st day after application, 0 = non-treated, 100 = complete kill
How it was run: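 Rice (2-leaf stage) was transplanted 3 cm deep into puddled, leveled paddy soil under 3–4 cm flooding. On day 4 after transplanting, diluted wettable powder or emulsifiable concentrate was pipetted onto the water at a predetermined active-ingredient dose. Growth control (0 = untreated, 100 = complete kill) was scored visually 21 days later.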

[22] = system: barnyardgrass; experiment: Test Example 1: foliage treatment, upland pot test; assay type: in vivo, Echinochloa crus-galli L.; conditions: active ingredient 500 g/ha, observed 18th to 23rd day, 0 = non-treated, 100 = complete kill
How it was run: as §1

[23] = observed day 21, 0 = non-treated, 100 = complete kill

CC(C)C(c1cnccc1C(F)(F)F)N(C)C(=O)C=Cc1ccc(Br)cc1 (stereo not drawn) [I-178]
Growth controlling degree (%) Velvetleaf [1]: 95% | Growth controlling degree (%) Rice [2]: 40% | Growth controlling degree (%) Barnyardgrass ([3]; observed 20th to 28th day): 90% | Growth controlling degree (%) Barnyardgrass ([4]; active ingredient 500 g/ha): 98% | Growth controlling degree (%) Prickly sida [5]: 95% | Growth controlling degree (%) Soybean [6]: 60% | Growth controlling degree (%) Velvetleaf ([7]; observed 20th to 28th day): 40% | Growth controlling degree (%) Green foxtail ([8]; observed 20th to 28th day): 100% | Growth controlling degree (%) Corn ([9]; observed 20th to 28th day): 10% | Growth controlling degree (%) Japanese ribbon wapato ([10]; active ingredient 500 g/ha): 40% | Growth controlling degree (%) Green foxtail [11]: 60% | Growth controlling degree (%) Soyabean ([12]; observed 20th to 28th day): 0% | Growth controlling degree (%) Redroot pigweed ([13]; observed 20th to 28th day): 40% | Growth controlling degree (%) Japanese bulrush ([14]; active ingredient 500 g/ha): 95% | Growth controlling degree (%) Crabgrass ([15]; observed 20th to 28th day): 98% | Growth controlling degree (%) Prickly sida ([16]; observed 20th to 28th day): 30% | Growth controlling degree (%) Corn [17]: 10% | Growth controlling degree (%) Rice ([18]; observed 20th to 28th day): 40% | Growth controlling degree (%) Redroot pigweed [19]: 70% | Growth controlling degree (%) Crabgrass [20]: 60% | Growth controlling degree (%) Rice ([21]; active ingredient 500 g/ha): 0% | Growth controlling degree (%) Barnyardgrass [22]: 50%

CC(C)C(c1cnccc1C(F)(F)F)N(C)C(=O)COc1ccccc1 (stereo not drawn) [I-229]
Growth controlling degree (%) Velvetleaf [1]: 90% | Growth controlling degree (%) Rice [2]: 30% | Growth controlling degree (%) Barnyardgrass ([3]; observed 20th to 28th day): 100% | Growth controlling degree (%) Barnyardgrass ([4]; active ingredient 500 g/ha): 100% | Growth controlling degree (%) Prickly sida [5]: 80% | Growth controlling degree (%) Soybean [6]: 50% | Growth controlling degree (%) Velvetleaf ([7]; observed 20th to 28th day): 50% | Growth controlling degree (%) Green foxtail ([8]; observed 20th to 28th day): 100% | Growth controlling degree (%) Corn ([9]; observed 20th to 28th day): 100% | Growth controlling degree (%) Japanese ribbon wapato ([10]; active ingredient 500 g/ha): 90% | Growth controlling degree (%) Green foxtail [11]: 70% | Growth controlling degree (%) Soyabean ([12]; observed 20th to 28th day): 10% | Growth controlling degree (%) Redroot pigweed ([13]; observed 20th to 28th day): 98% | Growth controlling degree (%) Japanese bulrush ([14]; active ingredient 500 g/ha): 95% | Growth controlling degree (%) Crabgrass ([15]; observed 20th to 28th day): 100% | Growth controlling degree (%) Prickly sida ([16]; observed 20th to 28th day): 100% | Growth controlling degree (%) Corn [17]: 10% | Growth controlling degree (%) Rice ([18]; observed 20th to 28th day): 50% | Growth controlling degree (%) Redroot pigweed [19]: 80% | Growth controlling degree (%) Crabgrass [20]: 80% | Growth controlling degree (%) Rice ([21]; active ingredient 500 g/ha): 0% | Growth controlling degree (%) Barnyardgrass [22]: 60%

CC(C)C(c1cnccc1C(F)(F)F)N(C)C(=O)Cc1cccs1 (stereo not drawn) [I-258]
Growth controlling degree (%) Velvetleaf [1]: 90% | Growth controlling degree (%) Rice [2]: 10% | Growth controlling degree (%) Barnyardgrass [3, 23]: 100% | Growth controlling degree (%) Barnyardgrass ([4]; active ingredient 250 g/ha): 100% | Growth controlling degree (%) Prickly sida [5]: 70% | Growth controlling degree (%) Soybean [6]: 70% | Growth controlling degree (%) Velvetleaf [7, 23]: 60% | Growth controlling degree (%) Green foxtail [8, 23]: 100% | Growth controlling degree (%) Corn [9, 23]: 0% | Growth controlling degree (%) Japanese ribbon wapato ([10]; active ingredient 250 g/ha): 70% | Growth controlling degree (%) Green foxtail [11]: 50% | Growth controlling degree (%) Soyabean [12, 23]: 10% | Growth controlling degree (%) Redroot pigweed [13, 23]: 90% | Growth controlling degree (%) Japanese bulrush ([14]; active ingredient 250 g/ha): 98% | Growth controlling degree (%) Crabgrass [15, 23]: 100% | Growth controlling degree (%) Prickly sida [16, 23]: 100% | Growth controlling degree (%) Corn [17]: 10% | Growth controlling degree (%) Rice [18, 23]: 10% | Growth controlling degree (%) Redroot pigweed [19]: 80% | Growth controlling degree (%) Crabgrass [20]: 90% | Growth controlling degree (%) Rice ([21]; active ingredient 250 g/ha): 30% | Growth controlling degree (%) Barnyardgrass [22]: 80%
